Assay results from publication PMC8151143.

Molecular target: T1, rPtCLec2 (PtCLec2) (Portunus trituberculatus, UniProt A0A7S5QMV0)
T1 construct: gene CLec2; mature peptide (signal peptide residues 1-19 removed) in pET-32a, N-terminal Trx and His tags kept, about 50 kDa; single CRD with QPD motif
T1 sequence (A0A7S5QMV0 20-267): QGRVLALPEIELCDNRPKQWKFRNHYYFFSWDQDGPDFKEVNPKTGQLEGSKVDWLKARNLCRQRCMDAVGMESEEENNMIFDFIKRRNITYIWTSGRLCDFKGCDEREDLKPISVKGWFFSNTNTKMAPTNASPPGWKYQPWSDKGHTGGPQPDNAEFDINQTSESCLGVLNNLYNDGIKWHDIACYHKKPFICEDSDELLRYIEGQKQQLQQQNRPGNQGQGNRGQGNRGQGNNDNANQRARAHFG
Experiment: inhibition of agglutination of FITC-labelled Pseudomonas aeruginosa, fluorescence microscopy
Type: binding
Conditions: 10 mM CaCl2; 25-200 mM sugar tested; rPtCLec2 100 ug/mL; 30 min preincubation; indirect (competition) read-out

SMILES	minimum concentration of carbohydrate that could completely inhibit bacterial agglutinating activity
OC[C@H]1OC(O)[C@@H](O)[C@@H](O)[C@@H]1O (stereo partly drawn) [D-mannose]	inhibited with the increasing concentration of LPS, D-galactose, and D-mannose
OC[C@H]1OC(O)[C@H](O)[C@@H](O)[C@H]1O (stereo partly drawn) [D-galactose]	inhibited with the increasing concentration of LPS, D-galactose, and D-mannose
